# Reference: the supplement of paper PMC10307832
# What was measured:
# Test in all cases: relative viability (nuclei count vs DMSO), 5 days (fraction); higher = more cells survive
# [1] = compound: C1=CC2=NC=CN=C2C=C1/C=C/3\C(=O)NC(=O)S3 + CC(=O)Nc1cccc(-n2c(=O)n(C3CC3)c(=O)c3c(Nc4ccc(I)cc4F)n(C)c(=O)c(C)c32)c1 [Trametinib] (partner 0.02 µM)
# In short: (§1)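 Nuclei were stained with Hoechst during a one-step fixation (final 0.05% Triton X-100, 1% formaldehyde, 1 ug/ml Hoechst) carried out 5 days after dosing, then counted on 4× images. The cells, lung cancer lines in 1536-well plates, had been dosed by pin tool the day after seeding with one drug alone or a fixed anchor-drug dose plus five library-drug doses (not always all listed) in √10 steps. Relative viability is the nuclei count in treated wells divided by that in vehicle wells, and each value is the median of duplicate plates.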
# [2] = compound: C1=CC2=NC=CN=C2C=C1/C=C/3\C(=O)NC(=O)S3 + C[C@]1(O)C[C@@H](c2nc(-c3ccc4ccc(-c5ccccc5)nc4c3)c3c(N)nccn32)C1 [Linsitinib] (partner 1 µM)
# In short: as §1
# [3] = compound: C1=CC2=NC=CN=C2C=C1/C=C/3\C(=O)NC(=O)S3 + CC(=O)c1c(C)c2cnc(Nc3ccc(N4CCNCC4)cn3)nc2n(C2CCCC2)c1=O [Palbociclib] (partner 0.5 µM)
# In short: as §1
# [4] = compound: C1=CC2=NC=CN=C2C=C1/C=C/3\C(=O)NC(=O)S3 + CC1(C)CCC(c2ccc(Cl)cc2)=C(CN2CCN(c3ccc(C(=O)NS(=O)(=O)c4ccc(N[C@H](CCN5CCOCC5)CSc5ccccc5)c(S(=O)(=O)C(F)(F)F)c4)cc3)CC2)C1 [Navitoclax] (partner 0.5 µM)
# In short: as §1
Cell Line,relative viability ([1]; first compound 0.02 µM),relative viability ([1]; first compound 0.06325 µM),relative viability ([1]; first compound 0.2 µM),relative viability ([1]; first compound 0.6325 µM),relative viability ([1]; first compound 2 µM),relative viability ([2]; first compound 0.02 µM),relative viability ([2]; first compound 0.06325 µM),relative viability ([2]; first compound 0.2 µM),relative viability ([2]; first compound 0.6325 µM),relative viability ([2]; first compound 2 µM),relative viability ([3]; first compound 0.02 µM),relative viability ([3]; first compound 0.06325 µM),relative viability ([3]; first compound 0.2 µM),relative viability ([3]; first compound 0.6325 µM),relative viability ([3]; first compound 2 µM),relative viability ([4]; first compound 0.02 µM),relative viability ([4]; first compound 0.06325 µM),relative viability ([4]; first compound 0.2 µM),relative viability ([4]; first compound 0.6325 µM),relative viability ([4]; first compound 2 µM)
201T,0.669,0.726,0.718,0.736,0.713,0.807,1.07,0.997,0.949,1.01,0.341,0.347,0.349,0.358,0.343,1.18,1.26,1.19,1.21,1.18
A549,–,–,–,–,–,0.648,0.682,0.627,0.546,0.6,–,–,–,–,–,1.24,1.43,1.22,1.02,1.11
A-427,0.777,0.773,0.725,0.75,0.596,1.07,1.16,1.12,1.14,1.07,0.498,0.561,0.507,0.524,0.533,0.935,0.977,0.993,0.934,0.877
ABC-1,–,–,–,–,–,0.76,0.761,0.758,1.01,0.804,0.75,0.699,0.726,0.662,0.645,–,–,–,–,–
BEN,1.06,0.885,0.986,1.05,0.856,0.812,0.922,0.899,0.843,0.93,0.491,0.422,0.492,0.475,0.448,0.0591,0.0567,0.065,0.0608,0.0653
CAL-12T,0.398,0.301,0.426,0.309,0.271,0.679,0.844,0.953,0.881,0.839,0.394,0.664,0.454,0.48,0.403,1.3,1.13,1.09,1.24,1.49
COR-L23,0.557,0.596,0.617,0.567,0.422,0.874,0.89,0.978,0.861,0.951,0.276,0.281,0.295,0.3,0.235,0.919,1.08,1.03,0.946,0.962
COR-L 105,0.422,0.549,0.451,0.408,0.423,0.897,0.949,0.947,0.851,1.03,0.429,0.423,0.387,0.349,0.412,0.697,0.703,0.821,0.678,0.999
Calu-6,–,–,–,–,–,0.946,1.13,1.05,0.899,0.876,–,–,–,–,–,0.848,0.895,0.782,0.853,0.87
ChaGo-K-1,0.9,0.785,0.888,0.887,0.872,–,–,–,–,–,0.888,0.69,0.971,0.917,0.947,1.06,1.67,1.28,0.924,0.726
EBC-1,–,–,–,–,–,0.88,1.22,0.922,0.953,0.925,–,–,–,–,–,0.43,0.437,0.545,0.38,0.51
EKVX,0.301,0.392,0.32,0.322,0.33,0.772,0.845,0.983,0.981,0.945,0.384,0.428,0.342,0.381,0.405,0.931,0.865,0.916,0.957,0.822
EMC-BAC-2,0.92,0.944,0.892,0.879,0.713,0.765,0.906,0.822,0.808,0.869,0.496,0.568,0.54,0.498,0.384,1.11,1.03,1.15,1.12,1.25
EPLC-272H,0.253,0.261,0.273,0.296,0.293,1.09,1.25,1.25,1.1,1.26,0.327,0.25,0.349,0.344,0.292,1.08,1.03,1.41,1.01,1.1
H3255,0.607,0.698,0.643,0.6,0.699,0.81,0.968,0.967,0.897,0.96,0.328,0.342,0.314,0.318,0.307,0.533,0.421,0.581,0.449,0.498
HARA,0.477,0.632,0.507,0.788,0.672,0.96,0.829,1.08,0.942,0.975,0.27,0.261,0.241,0.213,0.238,1.1,1.11,1.17,1.16,1.09
HCC-15,0.41,0.393,0.397,0.353,0.263,0.824,0.868,0.912,0.861,0.885,0.708,0.715,0.71,0.725,0.657,0.662,0.655,0.746,0.679,0.682
HCC-44,0.961,1,1.05,1.12,1,0.691,0.628,0.675,0.607,0.674,0.866,0.946,1.03,0.969,0.919,0.969,1.02,0.946,1.02,0.892
HCC-78,0.772,0.643,0.677,0.794,0.532,0.488,0.517,0.54,0.497,0.403,0.471,0.475,0.483,0.535,0.423,0.667,0.641,0.741,0.733,0.767
HCC-366,0.307,–,0.39,0.311,0.309,0.636,0.832,0.734,0.501,0.638,0.355,–,0.357,0.366,0.374,1.1,0.776,1.1,1.1,0.897

Cell Line,relative viability ([1]; first compound 0.02 µM),relative viability ([1]; first compound 0.06325 µM),relative viability ([1]; first compound 0.2 µM),relative viability ([1]; first compound 0.6325 µM),relative viability ([1]; first compound 2 µM),relative viability ([2]; first compound 0.02 µM),relative viability ([2]; first compound 0.06325 µM),relative viability ([2]; first compound 0.2 µM),relative viability ([2]; first compound 0.6325 µM),relative viability ([2]; first compound 2 µM),relative viability ([3]; first compound 0.02 µM),relative viability ([3]; first compound 0.06325 µM),relative viability ([3]; first compound 0.2 µM),relative viability ([3]; first compound 0.6325 µM),relative viability ([3]; first compound 2 µM),relative viability ([4]; first compound 0.02 µM),relative viability ([4]; first compound 0.06325 µM),relative viability ([4]; first compound 0.2 µM),relative viability ([4]; first compound 0.6325 µM),relative viability ([4]; first compound 2 µM)
HCC-827,0.611,0.35,0.505,0.456,0.544,0.944,0.928,1,0.935,0.884,0.616,0.436,0.425,0.51,0.473,0.999,1.01,1.03,1.08,1.03
HOP-62,0.355,0.366,0.419,0.369,0.38,1.04,0.982,1.1,1.01,1.06,0.478,0.527,0.44,0.373,0.449,0.974,1.15,1.13,1.06,0.931
IA-LM,–,–,–,–,–,0.516,0.729,0.607,0.606,0.694,–,–,–,–,–,0.71,0.943,0.91,0.96,0.845
LC-2-ad,0.884,0.991,0.931,0.972,0.83,0.76,0.885,0.784,0.726,0.854,0.463,0.455,0.481,0.53,0.352,0.441,0.455,0.461,0.378,0.397
LCLC-97TM1,0.197,0.193,0.222,0.232,0.167,0.23,0.188,0.203,0.162,0.145,0.239,0.214,0.215,0.176,0.155,0.483,0.339,0.483,0.425,0.379
LCLC-103H,0.676,0.701,0.634,0.665,0.666,1.05,0.799,1.03,0.976,1.08,0.482,0.457,0.475,0.431,0.485,–,–,–,–,–
LK-2,0.769,0.813,0.847,0.828,0.567,0.68,0.523,0.69,0.644,0.516,0.593,0.767,0.619,0.665,0.24,0.791,1.03,1.04,0.684,0.548
NCI-H358,0.145,0.122,0.139,0.126,0.11,0.776,0.764,0.754,0.647,0.74,0.147,0.135,0.128,0.136,0.114,–,–,–,–,–
NCI-H522,0.75,0.781,0.806,0.771,0.659,–,–,–,–,–,1.06,1.08,0.876,0.816,0.749,–,–,–,–,–
NCI-H596,0.764,0.771,0.794,0.887,0.722,1.01,0.994,1.11,0.975,1.07,–,–,–,–,–,0.902,0.96,0.977,0.883,0.951
NCI-H650,0.971,0.927,1.3,0.994,0.69,1.13,0.922,1.17,0.832,0.731,0.346,0.336,0.36,0.344,0.275,–,–,–,–,–
NCI-H661,0.709,0.557,0.606,0.526,0.618,0.59,0.501,0.606,0.583,0.56,0.397,0.453,0.402,0.434,0.436,–,–,–,–,–
NCI-H1299,–,–,–,–,–,0.841,1.1,0.985,0.919,0.927,–,–,–,–,–,1.04,1.08,1.04,1.04,1.06
NCI-H1563,–,–,–,–,–,1.19,1.23,1.12,1.1,1.3,–,–,–,–,–,–,–,–,–,–
NCI-H1648,0.434,0.401,0.496,–,0.487,–,–,–,–,–,0.301,0.223,0.345,–,0.23,–,–,–,–,–
NCI-H1650,0.541,0.595,0.686,0.559,0.63,–,–,–,–,–,0.218,0.43,0.37,0.347,0.343,1.23,1.3,1.14,1.14,1.3
NCI-H1703,–,–,–,–,–,1.04,1.13,1.1,0.696,0.741,–,–,–,–,–,1.19,1.89,1.24,0.954,1
NCI-H2170,0.866,1.01,1.03,0.868,0.986,–,–,–,–,–,0.35,0.448,0.405,0.374,0.374,0.527,0.521,0.607,0.563,0.501
NCI-H2342,0.698,0.865,0.821,0.801,0.792,–,–,–,–,–,0.508,0.524,0.547,0.484,0.498,–,–,–,–,–
SW 900,0.554,0.853,0.742,–,0.776,–,–,–,–,–,0.491,0.545,0.511,–,0.602,–,–,–,–,–
